Laboratory results published in patent publication US20230117034A1, “PYRAZOLOTRIAZINES” (Bayer Aktiengesellschaft, priority 2019, published 2023).

How the values were obtained:
[1] = molecular target: T1, CDK9/CycT1 (Homo sapiens, UniProt P50750); assay: CDK9/CycT1 high ATP kinase assay (TR-FRET, 2 mM ATP); assay type: biochemical; conditions: 2 mM ATP (high ATP); median; read-out: CDK9/CyclinT1, 2 mM ATP (high ATP), IC50 (median)
T1 construct: Recombinant full-length His-tagged human CDK9 and CycT1; purchased Life Technologies PV4131; host or cells: insect cells
T1 sequence (P50750 whole entry): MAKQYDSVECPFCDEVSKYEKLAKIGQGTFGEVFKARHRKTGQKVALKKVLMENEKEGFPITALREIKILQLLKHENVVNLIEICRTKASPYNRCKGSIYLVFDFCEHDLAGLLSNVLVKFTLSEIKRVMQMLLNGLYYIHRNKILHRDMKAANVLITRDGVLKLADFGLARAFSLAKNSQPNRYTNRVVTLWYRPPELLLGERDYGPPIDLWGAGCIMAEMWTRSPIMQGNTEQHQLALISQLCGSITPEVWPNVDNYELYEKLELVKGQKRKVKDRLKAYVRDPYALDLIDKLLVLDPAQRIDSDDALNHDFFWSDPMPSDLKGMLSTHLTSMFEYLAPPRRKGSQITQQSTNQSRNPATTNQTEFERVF
T1 sequence (O60563 whole entry partner): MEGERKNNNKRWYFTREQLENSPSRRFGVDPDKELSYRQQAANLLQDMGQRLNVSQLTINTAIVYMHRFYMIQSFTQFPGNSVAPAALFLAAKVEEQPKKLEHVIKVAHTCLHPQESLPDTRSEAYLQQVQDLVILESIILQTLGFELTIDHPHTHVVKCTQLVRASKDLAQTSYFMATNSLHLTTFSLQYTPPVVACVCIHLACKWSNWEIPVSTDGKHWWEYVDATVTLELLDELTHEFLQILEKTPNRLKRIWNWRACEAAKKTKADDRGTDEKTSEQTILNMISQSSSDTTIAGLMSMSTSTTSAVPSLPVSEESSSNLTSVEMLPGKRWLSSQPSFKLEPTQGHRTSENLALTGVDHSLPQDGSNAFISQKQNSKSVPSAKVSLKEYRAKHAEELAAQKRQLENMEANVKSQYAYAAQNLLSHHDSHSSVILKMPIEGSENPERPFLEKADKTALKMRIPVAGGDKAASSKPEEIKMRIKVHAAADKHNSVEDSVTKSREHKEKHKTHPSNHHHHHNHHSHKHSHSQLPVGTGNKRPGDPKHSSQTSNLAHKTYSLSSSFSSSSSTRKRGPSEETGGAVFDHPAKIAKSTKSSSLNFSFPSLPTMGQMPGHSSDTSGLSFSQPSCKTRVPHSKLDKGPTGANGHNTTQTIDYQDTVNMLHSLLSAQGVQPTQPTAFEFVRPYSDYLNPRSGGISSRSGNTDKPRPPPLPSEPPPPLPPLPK
Method in brief: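 Full-length His-tagged human CDK9/CycT1 (insect cell, ~0.5 μg/mL) preincubated 15 min at 22 °C with compound in Tris pH 8.0, MgCl2, DTT buffer before reaction with biotinylated peptide substrate at high ATP (2 mM).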

[2] = test system: CAL-120, human breast adenocarcinoma cells; assay: Proliferation assay CAL-120 (crystal violet, 4 days); assay type: cell-based; conditions: Homo sapiens, CAL-120, 96 h, CAL-120 cells, median, read-out: Prolif-CAL-120, IC50-[mol/l] (median)
Method in brief: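 Cells seeded at 4,000/well in medium with 10% FCS; after 24 h, compounds added at 0.01-10 µmol/L (0.1% DMSO) for 4 days. Glutaraldehyde-fixed, crystal violet-stained, absorbance at 595 nm normalized to zero-point plate (0%) and untreated cells (100%); IC50 by 4-parameter fit.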

[3] = molecular target: T2, CDK12 (nuclear staining in CAL-120 cells) (Homo sapiens, UniProt Q9NYV4); assay: CDK12 nuclear protein level: immunofluorescence/high content analysis (CAL-120); assay type: cell-based; conditions: for DC50: CAL-120 cells, 24 h, immunofluorescence, 50% reduction of nuclear CDK12 staining intensity, median, read-out: CDK12 degradation IF, DC50- [mol/l] (median); for (IC50 CDK12 high ATP) to (Degradation DC50 CDK12) ratio: ratio of IC50 CDK12 high ATP kinase assay to DC50 CDK12 degradation (IF, CAL-120)
T2 construct: endogenous in cells; host or cells: CAL-120 human breast cancer cells (DSMZ ACC 459)
T2 sequence (Q9NYV4 whole entry): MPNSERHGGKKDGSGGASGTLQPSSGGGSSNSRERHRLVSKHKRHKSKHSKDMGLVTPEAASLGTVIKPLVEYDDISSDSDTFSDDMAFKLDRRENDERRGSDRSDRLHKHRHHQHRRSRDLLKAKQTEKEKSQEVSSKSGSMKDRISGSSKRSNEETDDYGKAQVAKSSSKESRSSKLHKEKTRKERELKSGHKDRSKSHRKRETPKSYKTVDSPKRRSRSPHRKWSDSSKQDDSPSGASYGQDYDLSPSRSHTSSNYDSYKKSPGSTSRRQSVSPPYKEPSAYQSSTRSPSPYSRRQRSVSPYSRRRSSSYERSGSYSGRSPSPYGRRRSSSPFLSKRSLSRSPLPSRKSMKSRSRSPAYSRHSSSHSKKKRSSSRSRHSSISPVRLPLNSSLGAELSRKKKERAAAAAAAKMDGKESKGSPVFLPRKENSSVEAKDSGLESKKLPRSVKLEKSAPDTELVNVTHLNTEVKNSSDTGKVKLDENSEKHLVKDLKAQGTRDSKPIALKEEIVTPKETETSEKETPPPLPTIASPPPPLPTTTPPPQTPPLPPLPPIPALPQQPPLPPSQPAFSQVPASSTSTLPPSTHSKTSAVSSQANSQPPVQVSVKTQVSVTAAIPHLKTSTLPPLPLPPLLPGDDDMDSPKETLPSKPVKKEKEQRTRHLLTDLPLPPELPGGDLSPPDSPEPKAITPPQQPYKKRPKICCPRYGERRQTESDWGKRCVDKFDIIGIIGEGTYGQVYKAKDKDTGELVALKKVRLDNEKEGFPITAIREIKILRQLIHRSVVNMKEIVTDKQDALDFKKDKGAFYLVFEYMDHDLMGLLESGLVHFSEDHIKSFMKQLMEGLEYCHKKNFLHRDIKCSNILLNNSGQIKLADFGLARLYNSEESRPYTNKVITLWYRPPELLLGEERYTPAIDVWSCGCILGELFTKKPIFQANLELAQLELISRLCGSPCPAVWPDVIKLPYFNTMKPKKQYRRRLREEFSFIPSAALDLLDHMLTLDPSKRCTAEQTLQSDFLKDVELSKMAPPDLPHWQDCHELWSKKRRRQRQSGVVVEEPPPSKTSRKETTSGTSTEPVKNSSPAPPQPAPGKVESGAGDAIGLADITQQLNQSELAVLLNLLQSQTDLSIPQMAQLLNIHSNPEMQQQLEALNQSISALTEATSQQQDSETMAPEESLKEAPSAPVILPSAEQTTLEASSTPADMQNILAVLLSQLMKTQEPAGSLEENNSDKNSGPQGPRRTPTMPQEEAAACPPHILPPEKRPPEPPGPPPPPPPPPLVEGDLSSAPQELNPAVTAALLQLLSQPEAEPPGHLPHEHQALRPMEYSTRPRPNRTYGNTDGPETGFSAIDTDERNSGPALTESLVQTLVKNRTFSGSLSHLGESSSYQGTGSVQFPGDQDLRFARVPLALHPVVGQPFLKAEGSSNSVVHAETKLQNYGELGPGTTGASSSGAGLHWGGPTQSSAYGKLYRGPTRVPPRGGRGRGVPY
T2 sequence (O75909 whole entry partner): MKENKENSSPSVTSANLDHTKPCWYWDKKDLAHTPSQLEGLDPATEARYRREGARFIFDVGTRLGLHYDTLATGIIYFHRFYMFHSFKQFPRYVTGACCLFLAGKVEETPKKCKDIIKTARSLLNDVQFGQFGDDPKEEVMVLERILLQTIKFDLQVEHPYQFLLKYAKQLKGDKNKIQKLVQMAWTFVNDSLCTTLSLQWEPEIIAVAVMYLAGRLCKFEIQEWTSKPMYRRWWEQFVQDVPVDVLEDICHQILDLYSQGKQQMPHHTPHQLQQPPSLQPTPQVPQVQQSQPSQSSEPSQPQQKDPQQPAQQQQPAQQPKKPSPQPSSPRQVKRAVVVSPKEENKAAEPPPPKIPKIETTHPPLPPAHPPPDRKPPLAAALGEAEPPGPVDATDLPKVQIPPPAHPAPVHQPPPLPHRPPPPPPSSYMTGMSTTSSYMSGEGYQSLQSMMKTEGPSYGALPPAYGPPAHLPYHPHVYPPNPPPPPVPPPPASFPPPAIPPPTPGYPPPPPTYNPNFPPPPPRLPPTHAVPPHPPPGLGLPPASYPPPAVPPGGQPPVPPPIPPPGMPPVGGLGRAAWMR
Method in brief: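 CAL-120 cells were treated with compound for 24 h at 37 °C, fixed with PFA and immunostained for CDK12. Nuclear CDK12 intensity was quantified by automated image analysis and normalized to DMSO and control. DC50 is the concentration giving 50% reduction of nuclear staining.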

Row | SMILES | IC50 [1] [nM] | IC50 [2] [nM] | DC50 [3] [nM] | (IC50 CDK12 high ATP) to (Degradation DC50 CDK12) ratio [3]
1 | COc1cccc2[nH]c(CNc3nc(N4CCOCC4)nc4c(CC(F)(F)F)cnn34)nc12 [Example 277, N-[(4-methoxy-1H-benzimidazol-2-yl)methyl]-2-(morpholin-4-yl)-8-(2,2,2-trifluoroethyl)pyrazolo[1,5-a][1,3,5]triazin-4-amine] | > 20000 | 30.9 | 4.48 | 1071
2 | Fc1ccc2[nH]c(CNc3nc(N4CCOCC4)nc4c(C5CCOCC5)cnn34)nc2c1F [Example 276, N-[(4,5-difluoro-1H-benzimidazol-2-yl)methyl]-2-(morpholin-4-yl)-8-(oxan-4-yl)pyrazolo[1,5-a][1,3,5]triazin-4-amine] | > 20000 | 165 | 38.8 | >516
3 | NC1(C(F)(F)F)CCN(c2nc(NCc3nc4ccccc4[nH]3)n3ncc(Br)c3n2)C1 (centres unmarked) [Example 266, 2-[3-amino-3-(trifluoromethyl)pyrrolidin-1-yl]-N-(1H-benzimidazol-2-ylmethyl)-8-bromo-pyrazolo[1,5-a][1,3,5]triazin-4-amine] | > 20000 | 102 | 52.4 | 66
4 | Brc1cnn2c(NCc3nc4ccccc4[nH]3)nc(N3C[C@H]4CC[C@@H]3CN4)nc12 (single isomer, unassigned) [Example 316, N-[(1H-benzimidazol-2-yl)methyl]-8-bromo-2-{[1R or S-(1R*4R*)]-2,5-diazabicyclo[2.2.2]octan-2-yl}pyrazolo[1,5-a][1,3,5]triazin-4-amine] | 12900 | 7.16 | 5.62 | 519
5 | NC12CC1CN(c1nc(NCc3nc4ccccc4[nH]3)n3ncc(Br)c3n1)C2 (centres unmarked) [Example 258, 2-(1-amino-3-azabicyclo[3.1.0]hexan-3-yl)-N-(1H-benzimidazol-2-ylmethyl)-8-bromo-pyrazolo[1,5-a][1,3,5]triazin-4-amine] | > 20000 | 27.9 | 3.79 | 1239
6 | CN(CC1CC1)c1nc(NCc2nc3ccccc3[nH]2)n2ncc(Br)c2n1 [Example 287, N^4-[(1H-benzimidazol-2-yl)methyl]-8-bromo-N^2-(cyclopropylmethyl)-N^2-methylpyrazolo[1,5-a][1,3,5]triazine-2,4-diamine] | > 20000 | 33.2 | 101 | 106
7 | Brc1cnn2c(NCc3nc4c([nH]3)CCCC4)nc(N3CCOCC3)nc12 [Example 21, 8-bromo-2-(morpholin-4-yl)-N-[(4,5,6,7-tetrahydro-1H-benzimidazol-2-yl)methyl]pyrazolo[1,5-a][1,3,5]triazin-4-amine] | > 20000 | 161 | 186 | 52
8 | c1ccc2[nH]c(CNc3nc(N4C[C@@H]5CCCN[C@@H]5C4)nc4c(C5CC5)cnn34)nc2c1 [Example 249, N-[(1H-benzimidazol-2-yl)methyl]-8-cyclopropyl-2-[(4aS,7aS)-octahydro-6H-pyrrolo[3,4-b]pyridin-6-yl]pyrazolo[1,5-a][1,3,5]triazin-4-amine] | > 20000 | 4.28 | 6.48 | >2626
9 | Brc1cnn2c(NCc3nc4ccccc4[nH]3)nc(N3C[C@H]4CN[C@H]4C3)nc12.O=C(O)C(F)(F)F [Example 255, trifluoroacetic acid-N-[(1H-benzimidazol-2-yl)methyl]-8-bromo-2-[(1R,5R)-3,6-diazabicyclo[3.2.0]heptan-3-yl]pyrazolo[1,5-a][1,3,5]triazin-4-amine (1/1)] | > 20000 | 32.8 | 19.2 | >1044
10 | Brc1cnn2c(NCc3nc4ccccc4[nH]3)nc(NCC3CC3)nc12 [Example 284, N^4-[(1H-benzimidazol-2-yl)methyl]-8-bromo-N^2-(cyclopropylmethyl)pyrazolo[1,5-a][1,3,5]triazine-2,4-diamine] | > 20000 | 73.8 | 48.5 | 113
11 | N[C@H]1CN(c2nc(NCc3nc4ccccc4[nH]3)n3ncc(Br)c3n2)CC12CC2 [Example 259, 2-[(7R)-7-amino-5-azaspiro[2.4]heptan-5-yl]-N-[(1H-benzimidazol-2-yl)methyl]-8-bromopyrazolo[1,5-a][1,3,5]triazin-4-amine] | 7370 | 11.9 | 7.16 | 362
12 | Brc1cnn2c(NCc3nc4ccncc4[nH]3)nc(N3CCOCC3)nc12 [Example 22, 8-bromo-N-[(3H-imidazo[4,5-c]pyridin-2-yl)methyl]-2-(morpholin-4-yl)pyrazolo[1,5-a][1,3,5]triazin-4-amine] | > 18400 |  | 99 | 40
13 | Brc1cnn2c(NCc3nc4ccccc4[nH]3)nc(N3C[C@@H]4CN[C@@H]4C3)nc12.O=C(O)C(F)(F)F [Example 267, trifluoroacetic acid-N-[(1H-benzimidazol-2-yl)methyl]-8-bromo-2-[(1S,5S)-3,6-diazabicyclo[3.2.0]heptan-3-yl]pyrazolo[1,5-a][1,3,5]triazin-4-amine (1/1)] | > 20000 | 69.4 | 31.9 | >627
14 | CC1(O)CCN(c2nc(NCc3nc4ccccc4[nH]3)n3ncc(Br)c3n2)C1 (single isomer, unassigned) [Example 282, (3R or S)-1-(4-{[(1H-benzimidazol-2-yl)methyl]amino}-8-bromopyrazolo[1,5-a][1,3,5]triazin-2-yl)-3-methylpyrrolidin-3-ol] | > 20000 | 45.2 | 27.9 | >320
15 | Brc1cnn2c(NCc3nc4cccnc4[nH]3)nc(N3CCNCC3)nc12.O=CO [Example 19, 8-bromo-N-[(3H-imidazo[4,5-b]pyridin-2-yl)methyl]-2-(piperazin-1-yl)pyrazolo[1,5-a][1,3,5]triazin-4-amine formic acid salt] | > 20000 |  | 10.9 | 1056
16 | CN1CCN(c2nc(NCc3nc4ccccc4[nH]3)n3ncc(Br)c3n2)C(CO)C1 (single isomer, unassigned) [Example 280, [(2R or S)-1-(4-{[(1H-benzimidazol-2-yl)methyl]amino}-8-bromopyrazolo[1,5-a][1,3,5]triazin-2-yl)-4-methylpiperazin-2-yl]methanol] | > 20000 | 64.1 | 21.4 | 678
